Measurements reported in patent US20160272617A1, “SUBSTITUTED PHENYLALANINE DERIVATIVES” (BAYER PHARMA AKTIENGESELLSCHAFT, priority 2013, published 2016).
Where a name gives a salt, the structure may show the parent alone.

Key:
human factor XIa = molecular target: T1, human factor XIa (Homo sapiens, UniProt P03951); test: Measurement of FXIa inhibition (fluorogenic peptide substrate Boc-Glu(OBzl)-Ala-Arg-AMC); type: biochemical; details: factor XIa from Kordia, 15 min preincubation, 30 min at 22° C., fluorescence
T1 construct: purchased Kordia
Method in brief: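 Released AMC fluorescence (360/460 nm) read after 30 min at 22 °C. The reaction was started with Boc-Glu(OBzl)-Ala-Arg-AMC (10 μM stock) after a 15 min preincubation of the enzyme (0.45 nM stock) with compound (final 50 μM to 0.00013 μM).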

human and animal plasma = test: Determination of anticoagulatory activity: activated partial thromboplastin time (aPTT) in plasma; details: concentration of test substance which brings about a 1.5-fold extension of the aPTT; plasma species not given
Method in brief: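 Citrated plasma (1:9, 0.11 M citrate; 4000 g, 15 min) from human or animal blood incubated with test compound and cephalin/kaolin PTT reagent for 3 min at 37° C.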

human plasmin = molecular target: T2, human plasmin (Homo sapiens, UniProt P00747); test: Measurement of plasmin inhibition (fluorogenic peptide substrate MeOSuc-Ala-Phe-Lys-AMC); type: biochemical; details: plasmin from Kordia, 15 min preincubation, 30 min at 22° C., fluorescence
T2 construct: purchased Kordia
Experimental: The plasmin inhibition of the inventive substances is determined using a biochemical test system which utilizes the reaction of a peptidic plasmin substrate to determine the enzymatic activity of human plasmin. Here, plasmin cleaves from the peptic plasmin substrate the C-terminal aminomethylcoumarin (AMC), the fluorescence of which is measured. The determinations are carried out in microtitre plates.
Test substances are dissolved in dimethyl sulphoxide and serially diluted in dimethyl sulphoxide (3000 μM to 0.0078 μM; resulting final concentrations in the test: 50 μM to 0.00013 μM). In each case 1 μl of the diluted substance solutions are placed into the wells of white microtitre plates from Greiner (384 wells). Subsequently, the following are added successively: 20 μl of assay buffer (50 mmol/Tris buffer pH 7.4; 100 mmol/l sodium chloride; 5 mmol/calcium chloride; 0.1% bovine serum albumin) and 20 μl of plasmin from Kordia (0.3 μg/ml in assay buffer) are then added successively. After 15 min of incubation, the enzyme reaction is started by addition of 20 μl of the plasmin substrate MeOSuc-Ala-Phe-Lys-AMC dissolved in assay buffer (150 μM in assay buffer) from Bachem, the mixture is incubated at room temperature (22° C.) for 30 min and fluorescence is then measured (excitation: 360 nm, emission: 460 nm). The measured emissions of the test batches with test substance are compared to those of control batches without test substance (only dimethyl sulphoxide instead of test substance in dimethyl sulphoxide), and the IC50 values are calculated from the concentration/activity relationships.

T1 sequence (P03951 388-625 limits assumed): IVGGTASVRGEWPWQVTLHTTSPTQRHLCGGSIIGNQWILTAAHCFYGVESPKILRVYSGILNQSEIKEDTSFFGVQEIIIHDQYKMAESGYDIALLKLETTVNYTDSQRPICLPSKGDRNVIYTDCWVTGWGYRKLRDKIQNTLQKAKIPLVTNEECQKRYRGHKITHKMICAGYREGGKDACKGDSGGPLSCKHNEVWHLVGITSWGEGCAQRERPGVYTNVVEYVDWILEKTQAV
T1 sequence (P03951 19-387 partner limits assumed): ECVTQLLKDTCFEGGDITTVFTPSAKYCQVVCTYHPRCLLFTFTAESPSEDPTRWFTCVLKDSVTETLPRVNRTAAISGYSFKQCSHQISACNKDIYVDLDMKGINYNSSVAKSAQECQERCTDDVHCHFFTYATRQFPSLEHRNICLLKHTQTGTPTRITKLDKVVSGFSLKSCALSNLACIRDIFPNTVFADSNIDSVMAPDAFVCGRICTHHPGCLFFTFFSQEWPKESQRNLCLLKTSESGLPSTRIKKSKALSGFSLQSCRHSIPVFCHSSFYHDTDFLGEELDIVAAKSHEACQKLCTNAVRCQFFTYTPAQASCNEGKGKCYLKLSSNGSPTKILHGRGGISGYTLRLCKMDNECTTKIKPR
T2 sequence (P00747 581-810 limits assumed): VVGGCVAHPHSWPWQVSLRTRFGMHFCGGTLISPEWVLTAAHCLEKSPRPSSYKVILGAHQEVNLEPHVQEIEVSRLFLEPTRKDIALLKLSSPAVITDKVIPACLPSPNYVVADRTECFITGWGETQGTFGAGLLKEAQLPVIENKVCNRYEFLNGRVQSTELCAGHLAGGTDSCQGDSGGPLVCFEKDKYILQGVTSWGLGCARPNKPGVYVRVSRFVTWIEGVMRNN
T2 sequence (P00747 97-580 partner limits assumed): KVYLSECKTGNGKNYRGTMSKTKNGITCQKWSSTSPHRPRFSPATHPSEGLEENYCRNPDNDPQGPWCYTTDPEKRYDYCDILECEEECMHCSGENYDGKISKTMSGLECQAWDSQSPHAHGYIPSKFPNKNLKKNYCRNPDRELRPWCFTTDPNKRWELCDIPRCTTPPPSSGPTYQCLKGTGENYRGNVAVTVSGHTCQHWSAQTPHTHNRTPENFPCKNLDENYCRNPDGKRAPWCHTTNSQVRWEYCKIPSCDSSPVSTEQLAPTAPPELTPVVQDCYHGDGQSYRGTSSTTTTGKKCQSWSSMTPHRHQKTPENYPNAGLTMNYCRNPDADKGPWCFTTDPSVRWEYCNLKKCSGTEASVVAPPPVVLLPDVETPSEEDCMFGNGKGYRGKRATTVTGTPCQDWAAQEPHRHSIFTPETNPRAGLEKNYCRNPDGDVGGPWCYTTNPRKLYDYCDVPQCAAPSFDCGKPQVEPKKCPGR

Row | SMILES | IC50 (human factor XIa) | aPTT (human and animal plasma) | IC50 (human plasmin)
1 | Cc1cc(C(=O)N[C@@H](C)C(F)(F)F)ccc1-c1ccc(C[C@H](NC(=O)[C@H]2CC[C@H](CN)CC2)C(=O)Nc2ccc3[nH]c(=O)[nH]c3c2)cc1 [Example 133, 4′-{(2S)-2-({[trans-4-(Aminomethyl)cyclohexyl]carbonyl}amino)-3-oxo-3-[(2-oxo-2,3-dihydro-1H-benzimidazol-5-yl)amino]propyl}-2-methyl-N-[(2S)-1,1,1-trifluoropropan-2-yl]biphenyl-4-carboxamide] | 6.7 nM | 0.1 µmol/L | 1.6 nM
2 | CC(C)NC(=O)c1ccc(-c2ccc(C[C@H](NC(=O)[C@H]3CC[C@H](CN)CC3)C(=O)Nc3cc(F)c4cn[nH]c4c3)cc2)c(Cl)c1 [Example 134, 4′-{(2S)-2-({[trans-4-(Aminomethyl)cyclohexyl]carbonyl}amino)-3-[(4-fluoro-1H-indazol-6-yl)amino]-3-oxopropyl}-2-chloro-N-isopropylbiphenyl-4-carboxamide hydrochloride] | 8.9 nM | 0.44 µmol/L | 0.64 nM
3 | Cc1cc(C(=O)NC(C)C)ccc1-c1ccc(C[C@H](NC(=O)[C@H]2CC[C@H](CN)CC2)C(=O)Nc2ccc3c(=O)[nH][nH]c3c2)cc1 [Example 135, 4′-{(2S)-2-({[trans-4-(Aminomethyl)cyclohexyl]carbonyl}amino)-3-oxo-3-[(3-oxo-2,3-dihydro-1H-indazol-6-yl)amino]propyl}-N-isopropyl-2-methylbiphenyl-4-carboxamide hydrochloride] | 2.2 nM | 0.24 µmol/L | 0.96 nM
4 | CC(NC(=O)c1ccc(-c2ccc(CC(NC(=O)[C@H]3CC[C@H](CN)CC3)C(=O)Nc3ccc(-c4nnn[nH]4)cc3)cc2)c(Cl)c1)C1CC1 (stereo partly drawn) [Example 136, hydrochloride] | 1.2 nM | 0.29 µmol/L | 1.5 nM
5 | CC(C)NC(=O)c1ccc(-c2ccc(C[C@H](NC(=O)[C@H]3CC[C@H](CN)CC3)C(=O)Nc3ccc4[nH]c(=O)[nH]c4c3)cc2)c(Cl)c1 [Example 137, 4′-{(2S)-2-({[trans-4-(Aminomethyl)cyclohexyl]carbonyl}amino)-3-oxo-3-[(2-oxo-2,3-dihydro-1H-benzimidazol-5-yl)amino]propyl}-2-chloro-N-isopropylbiphenyl-4-carboxamide hydrochloride] | 11 nM | 0.07 µmol/L | 2.2 nM
6 | Cc1cc(C(=O)NC2CCC2)ccc1-c1ccc(C[C@H](NC(=O)[C@H]2CC[C@H](CN)CC2)C(=O)Nc2ccc(-c3nnn[nH]3)cc2)cc1 [Example 138, 4′-[(2S)-2-({[trans-4-(Aminomethyl)cyclohexyl]carbonyl}amino)-3-oxo-3-{[4-(1H-tetrazol-5-yl)phenyl]amino}propyl]-N-cyclobutyl-2-methylbiphenyl-4-carboxamide hydrochloride] | 0.84 nM | 0.25 µmol/L | 2.3 nM
7 | Cc1cc(C(=O)NC(C)CO)ccc1-c1ccc(C[C@H](NC(=O)[C@H]2CC[C@H](CN)CC2)C(=O)Nc2ccc(-c3nnn[nH]3)cc2)cc1 (stereo partly drawn) [Example 139, 4′-[(2S)-2-({[trans-4-(Aminomethyl)cyclohexyl]carbonyl}amino)-3-oxo-3-{[4-(1H-tetrazol-5-yl)phenyl]amino}propyl]-N-(1-hydroxypropan-2-yl)-2-methylbiphenyl-4-carboxamide hydrochloride] | 4.1 nM | 0.17 µmol/L | 13 nM
8 | Cc1cc(C(=O)NC(C)C)ccc1-c1ccc(C[C@H](NC(=O)[C@H]2CC[C@H](CN)CC2)C(=O)Nc2ccc3c(c2)[nH]c(=O)n3C)cc1 [Example 140, 4′-{(2S)-2-({[trans-4-(Aminomethyl)cyclohexyl]carbonyl}amino)-3-[(1-methyl-2-oxo-2,3-dihydro-1H-benzimidazol-5-yl)amino]-3-oxopropyl}-N-isopropyl-2-methylbiphenyl-4-carboxamide hydrochloride] | 13 nM | 0.25 µmol/L | 1.5 nM
9 | Cc1cc(C(=O)NC2CC2)ccc1-c1ccc(C[C@H](NC(=O)[C@H]2CC[C@H](CN)CC2)C(=O)Nc2ccc3[nH]nnc3c2)cc1 [Example 141, 4′-[(2S)-2-({[trans-4-(Aminomethyl)cyclohexyl]carbonyl}amino)-3-(1H-benzotriazol-5-ylamino)-3-oxopropyl]-N-cyclopropyl-2-methylbiphenyl-4-carboxamide hydrochloride] | 3.9 nM | 0.30 µmol/L | 1.6 nM
10 | Cc1cc(C(=O)NC(C)C)ccc1-c1ccc(C[C@H](NC(=O)[C@H]2CC[C@H](CN)CC2)C(=O)Nc2ccc3nc[nH]c3c2)cc1 [Example 142, 4′-[(2S)-2-({[trans-4-(Aminomethyl)cyclohexyl]carbonyl}amino)-3-(1H-benzimidazol-6-ylamino)-3-oxopropyl]-N-isopropyl-2-methylbiphenyl-4-carboxamide hydrochloride] | 15 nM | 0.33 µmol/L | 2.1 nM
11 | Cc1cc(C(=O)NC(C)C)ccc1-c1ccc(C[C@H](NC(=O)[C@H]2CC[C@H](CN)CC2)C(=O)Nc2ccc(-c3nnc(CCC(=O)O)[nH]3)cc2)cc1 [Example 157, 3-{5-[4-({(2S)-2-({[trans-4-(Aminomethyl)cyclohexyl]carbonyl}amino)-3-[4′-(isopropyl-carbamoyl)-2′-methylbiphenyl-4-yl]propanoyl}amino)phenyl]-4H-1,2,4-triazol-3-yl}propanoic acid hydrochloride] | 3.6 nM | 0.33 µmol/L | 1.7 nM
12 | Cc1cc(C(=O)NC(C)C)ccc1-c1ccc(C[C@H](NC(=O)[C@H]2CC[C@H](CN)CC2)C(=O)Nc2cc(Cl)c3[nH]c(=O)[nH]c3c2)cc1 [Example 158, 4′-{(2S)-2-({[trans-4-(Aminomethyl)cyclohexyl]carbonyl}amino)-3-[(7-chloro-2-oxo-2,3-dihydro-1H-benzimidazol-5-yl)amino]-3-oxopropyl}-N-isopropyl-2-methylbiphenyl-4-carboxamide hydrochloride] | 3.8 nM | 0.1 µmol/L | 0.43 nM
13 | Cc1cc(C(=O)NC(C)C)ccc1-c1ccc(C[C@H](NC(=O)[C@H]2CC[C@H](CN)CC2)C(=O)Nc2cc(Cl)c3cn[nH]c3c2)cc1 [Example 159, 4′-{(2S)-2-({[trans-4-(Aminomethyl)cyclohexyl]carbonyl}amino)-3-[(4-chloro-1H-indazol-6-yl)amino]-3-oxopropyl}-N-isopropyl-2-methylbiphenyl-4-carboxamide hydrochloride] | 3.5 nM | 0.36 µmol/L | 0.32 nM
14 | Cc1cc(C(=O)NC2CCC2)ccc1-c1ccc(C[C@H](NC(=O)[C@H]2CC[C@H](CN)CC2)C(=O)Nc2ccc3c(=O)[nH][nH]c3c2)cc1 [Example 162, 4′-{(2S)-2-({[trans-4-(Aminomethyl)cyclohexyl]carbonyl}amino)-3-oxo-3-[(3-oxo-2,3-dihydro-1H-indazol-6-yl)amino]propyl}-N-cyclobutyl-2-methylbiphenyl-4-carboxamide hydrochloride] | 1.8 nM | 0.15 µmol/L | 1.1 nM
